In test [1] the target is FabK (Streptococcus pneumoniae, UniProt Q9FBC5). Type of test: biochemical.
Description: A coupled enzyme system was employed to assay FabK by combining the purified E. coli proteins required to reconstitute a cycle of fatty acid synthesis with the exception of the FabI enoyl-ACP reductase. Reaction mixtures were first incubated to generate trans-2-butenoyl-ACP and then the indicated amounts of FabK were added as described in the Example below. Products were separated by conformationally sensitive gel electrophoresis and the bands visualized and quantitated using a Phosphorimager (FIG. 2C).
Enzymatic Assays: A reaction mixture containing 100 μM ACP, 1 mM β-mercaptoethanol, 100 μM acetyl-CoA, 50 μM [2-^14C]malonyl-CoA (56 mCi/mmol), 200 μM NADPH, 200 μM NADH, and 12.5 μg/ml of each FabD, FabH, FabG, FabA and FabZ in 0.1 M sodium phosphate pH 7.0 was incubated at 37° C. for 30 min to generate the trans-2-enoyl-ACP substrate before being aliquoted into individual reaction tubes to which FabK was added to the final amount as indicated for the Figures, above. The final reaction volume was 40 μL. Reactions were then incubated for 30 min at 37° C. and were stopped by placing into an ice slurry. Gel loading buffer was added, and the entire sample was loaded onto a 13% polyacrylamide gel containing 0.5 M urea [Heath and Rock, J. Biol. Chem., 271:1833 (1996)]. […]
Test [2] relates to E. coli W3110/pBluescript. Description: triclosan MIC on LB agar plates. The following applies: Escherichia coli; E. coli W3110/pBluescript (empty vector); no growth in at least three experiments. Type of test: cell-based.
The subject of test [3] is E. coli RJR108 (fabI[G93V]). Briefly: triclosan MIC on LB agar plates. The class given is cell-based. The conditions noted are these: Escherichia coli.
The subject of test [4] is E. coli W3110/pfabI. Description: triclosan MIC on LB agar plates. Type of test: cell-based. The conditions noted are these: Escherichia coli; E. coli W3110/pfabI (His-tag E. coli FabI, multi-copy plasmid).
The subject of test [5] is E. coli W3110/pfabK. Description: triclosan MIC on LB agar plates. The class given is cell-based, Escherichia coli. The following applies: for MIC: Escherichia coli. The method, then:
FabI is the only enoyl reductase in E. coli and strain RJH13 harbors a fabI(Ts) allele and fails to grow at 42° C. [Heath et al., J. Biol. Chem., 273:30316 (1998)]. […] The pfabK plasmid was then introduced into the wild-type E. coli strain W3110. […] J. Infect. Control, 24:209 (1996)].

Test [6] has as its system S. pneumoniae R6. Description: triclosan MIC on brain heart infusion plates. Type of test: cell-based. The conditions noted are these: Streptococcus pneumoniae.
In test [7] the test system is E. coli expressing FabL. The following applies: FabL cloned from B. subtilis (ygaA). From the text:
However, such limited structural information alone cannot allow the identification since the overall identity of SDRs are low and the family size is large.

Test [8] deals with B. subtilis. The following applies: cited from earlier work.
The test system of test [9] is P. aeruginosa. The conditions noted are these: contains both FabI and FabK; cited from earlier work.
Test [10] addresses FabI protein from P. aeruginosa (Pseudomonas aeruginosa, UniProt Q9ZFE4). The following applies: cited from earlier work.
Test [11] concerns the target T1, FabI[G93V] mutant (Escherichia coli, UniProt P0AEK4, G93V).
T1 sequence (P0AEK4 1-262 G93V): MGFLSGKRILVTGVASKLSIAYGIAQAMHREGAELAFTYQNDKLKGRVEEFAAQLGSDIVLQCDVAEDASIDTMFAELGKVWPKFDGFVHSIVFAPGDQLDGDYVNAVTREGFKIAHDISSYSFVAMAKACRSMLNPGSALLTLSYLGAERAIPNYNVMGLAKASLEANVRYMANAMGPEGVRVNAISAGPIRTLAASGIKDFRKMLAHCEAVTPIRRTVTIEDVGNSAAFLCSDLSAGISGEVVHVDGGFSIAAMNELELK
The conditions noted are these: fails to form high-affinity FabI-NAD+-triclosan ternary complex; cited from earlier work.

In brackets after ≈: the same amount, converted by molar mass. Entries after “also recorded” stand apart in the source; their conditions may differ. Read-outs that look alike come from different tables or passages of the source. A value given as a limit tells only on which side of the number the result lay.

FabK, sequence (Q9FBC5 entry or part of it): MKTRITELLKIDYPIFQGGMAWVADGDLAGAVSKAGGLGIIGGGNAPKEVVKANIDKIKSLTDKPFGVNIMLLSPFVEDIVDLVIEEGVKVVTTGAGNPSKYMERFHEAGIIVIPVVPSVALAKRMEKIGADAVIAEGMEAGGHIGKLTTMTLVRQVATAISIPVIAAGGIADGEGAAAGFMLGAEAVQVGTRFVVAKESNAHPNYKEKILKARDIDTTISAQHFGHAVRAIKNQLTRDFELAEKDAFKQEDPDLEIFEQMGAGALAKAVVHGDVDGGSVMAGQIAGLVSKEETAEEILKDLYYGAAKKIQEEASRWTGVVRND
FabI protein from P. aeruginosa, sequence (Q9ZFE4 whole entry): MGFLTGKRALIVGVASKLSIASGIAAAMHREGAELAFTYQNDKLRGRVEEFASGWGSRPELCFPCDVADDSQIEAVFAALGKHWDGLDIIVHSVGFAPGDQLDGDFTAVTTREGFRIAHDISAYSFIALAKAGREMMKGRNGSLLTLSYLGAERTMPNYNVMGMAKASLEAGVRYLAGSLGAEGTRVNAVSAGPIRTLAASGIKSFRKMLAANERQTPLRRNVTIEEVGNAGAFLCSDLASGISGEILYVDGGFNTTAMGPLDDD

Regarding `Oc1cc(Cl)ccc1Oc1ccc(Cl)cc1Cl` [triclosan, 2,4,4′-Trichloro-2′-hydroxydiphenyl ether], the “inhibition of FabK activity in the in vitro assay” value in [1] is “did not inhibit”. Further, the MIC in [2] is 0.25 µg/mL (≈ 0.863 µM); in [3], 16 µg/mL (≈ 55.3 µM); in test [4], 2 µg/mL (≈ 6.91 µM); in [5] (E. coli W3110/pfabK (His-tag S. pneumoniae FabK), read-out: MIC), > 2000 µg/mL; in test [5] (pfabK plasmid in strain W3110, read-out: minimum inhibitory concentration (MIC)) it was > 2000 µg/mL; in test [6] (R6, S. pneumoniae) it was ~2 µg/mL (≈ 6.91 µM). For the same compound, the MIC in [6] (R6, S. pneumoniae R6, brain heart infusion plates) was 2 µg/mL (≈ 6.91 µM); in test [8], “about 2 μg/ml”. In test [5] (E. coli with fabK expression), the “triclosan resistance of E. coli expressing fabK” value is recorded as “completely resistant; also recorded: complete triclosan resistance”. For the same compound, the “triclosan resistance of E. coli expressing FabL” value in test [7] is listed as “complete triclosan resistance”. Besides, the “triclosan inhibition of P. aeruginosa” value in test [9] is “completely refractory”. Besides, the “susceptibility of P. aeruginosa FabI to triclosan in vitro” value in test [10] is “highly susceptible”. Also, the “inhibition of FabI[G93V] mutant by triclosan” value in [11] was “still inhibited”.
